Where two headings read alike, the source gives them in different places.
Molecular target: T1, SIRT1 (Homo sapiens, UniProt Q96EB6)
T1 sequence (Q96EB6 1-747): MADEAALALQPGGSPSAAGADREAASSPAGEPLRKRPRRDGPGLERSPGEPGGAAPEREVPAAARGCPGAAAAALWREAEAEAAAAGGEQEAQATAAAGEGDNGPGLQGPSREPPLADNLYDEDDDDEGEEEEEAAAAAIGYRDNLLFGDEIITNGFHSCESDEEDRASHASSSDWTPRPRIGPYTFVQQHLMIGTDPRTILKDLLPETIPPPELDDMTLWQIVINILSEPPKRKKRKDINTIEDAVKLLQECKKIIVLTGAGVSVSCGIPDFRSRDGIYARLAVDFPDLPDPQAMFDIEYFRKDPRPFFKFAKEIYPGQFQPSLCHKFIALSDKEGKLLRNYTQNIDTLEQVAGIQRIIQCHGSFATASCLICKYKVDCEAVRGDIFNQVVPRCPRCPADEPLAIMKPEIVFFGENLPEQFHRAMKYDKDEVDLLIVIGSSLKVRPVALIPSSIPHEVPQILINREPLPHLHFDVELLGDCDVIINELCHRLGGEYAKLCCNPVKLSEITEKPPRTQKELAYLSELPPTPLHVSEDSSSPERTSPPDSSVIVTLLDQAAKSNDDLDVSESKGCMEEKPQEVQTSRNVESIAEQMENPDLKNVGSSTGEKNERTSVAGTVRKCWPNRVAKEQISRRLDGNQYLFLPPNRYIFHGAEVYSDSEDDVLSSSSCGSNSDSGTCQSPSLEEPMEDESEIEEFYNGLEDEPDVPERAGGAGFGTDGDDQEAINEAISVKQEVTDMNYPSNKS
Assay: Mass spectrometry based SIRT1 deacetylase activation assay (acetylated p53-derived peptide substrate)
Type: biochemical

[1] = 0.5 μM peptide substrate, 120 μM βNAD+, 10 nM SIRT1, 25 min at 25° C.
[2] = 0.5 μM peptide substrate, 120 μM βNAD+, 10 nM SIRT1, 25 min at 25° C., read-out: EC1.5
[3] = 0.5 μM peptide substrate, 120 μM βNAD+, 10 nM SIRT1, 25 minutes at 25° C.

EC1.5 | Fold Act. (percent maximum fold activation) | EC1.5 [3] | Fold Act. (percent maximum fold activation) [3] | SMILES | further results
– | – | – | – | O=C(Nc1cccc(OCC(O)CO)c1)c1cccc2[nH]c(-c3cc(F)ccc3C(F)(F)F)nc12 (stereo not shown) [Compound 480] | Fold Act. (percent maximum fold activation) [1]: A (Fold activation >200%); EC1.5 [2]: < 1000 nM
C (EC1.5 >25 uM) | B (Fold Activation <200%) | – | – | O=C(Nc1ccc(Cl)nn1)c1cccc2[nH]c(-c3cccc(C(F)(F)F)c3)nc12 [Compound 309] | –
– | – | – | – | O=C(Nc1cccnn1)c1cccc2[nH]c(-c3ccccc3OCCN3CCOCC3)nc12 [Compound 488] | Fold Act. (percent maximum fold activation) [1]: B (Fold Activation <200%); EC1.5 [2]: 1000 to 25000 nM
B (EC1.5 1-25 uM) | A (Fold activation >200%) | – | – | O=C(Nc1cccc[n+]1[O-])c1cccc2[nH]c(-c3ccccc3C(F)(F)F)nc12 [Compound 329, 2-(2-(2-(trifluoromethyl)phenyl)-1H-benzo[d]imidazole-4-carboxamido)pyridine 1-oxide] | –
– | – | B (EC1.5 1-25 uM) | A (Fold activation >200%) | O=C(Nc1ccccn1)c1cccc2[nH]c(-c3ccc(N4CC[C@@H](F)C4)cc3C(F)(F)F)nc12 [Compound 609] | –
– | – | C (EC1.5 >25 uM) | B (Fold Activation <200%) | O=C(Nc1ccccn1)c1cccc2[nH]c(-c3cc(N4CCCC4)ccc3C(F)(F)F)nc12 [Compound 688] | –
– | – | – | – | O=C(Nc1ccccn1)c1cccc2[nH]c(-c3cc(N4CCOCC4)ccc3C(F)(F)F)nc12 [Compound 449] | Fold Act. (percent maximum fold activation) [1]: A (Fold activation >200%); EC1.5 [2]: < 1000 nM
– | – | A (EC1.5<1.0 uM) | A (Fold activation >200%) | CC1(C)CN(c2ccc(C(F)(F)F)c(-c3nc4c(C(=O)Nc5nccs5)cccc4[nH]3)c2)CCO1 [Compound 708] | –
A (EC1.5<1.0 uM) | A (Fold activation >200%) | – | – | CN1CCOc2cc(-c3nc4c(C(=O)Nc5cccnc5)cccc4[nH]3)cnc21 [Compound 372] | –
– | – | B (EC1.5 1-25 uM) | A (Fold activation >200%) | C[C@@H]1CN(CCOc2ccccc2-c2nc3c(C(=O)Nc4ccccn4)cccc3[nH]2)C[C@H](C)O1 [Compound 610] | –
– | – | A (EC1.5<1.0 uM) | A (Fold activation >200%) | O=C(Nc1cccc(OC[C@H](O)CO)c1)c1cc(F)cc2[nH]c(-c3ccccc3C(F)F)nc12 [Compound 811, (R)-2-(2-(difluoromethyl)phenyl)-N-(3-(2,3-dihydroxypropoxy)phenyl)-6-fluoro-1H-benzo[d]imidazole-4-carboxamide] | –
– | – | A (EC1.5<1.0 uM) | A (Fold activation >200%) | O=C(Nc1nccs1)c1cncc2nc(-c3ccc(OC[C@@H](O)CO)cc3C(F)F)[nH]c12 [Compound 771] | –
– | – | – | – | O=C(Nc1ccccn1)c1cccc2[nH]c(-c3ccccc3OCCN3CCCC3)nc12 [Compound 472] | Fold Act. (percent maximum fold activation) [1]: B (Fold Activation <200%); EC1.5 [2]: 1000 to 25000 nM
B (EC1.5 1-25 uM) | A (Fold activation >200%) | – | – | O=C(Nc1nccs1)c1cccc2[nH]c(-c3cccc(F)c3)nc12 [Compound 212] | –
– | – | – | – | O=C(Nc1cccc(OCC(O)CO)c1)c1cccc2[nH]c(-c3ccc(Cl)cc3C(F)(F)F)nc12 (stereo not shown) [Compound 479] | Fold Act. (percent maximum fold activation) [1]: A (Fold activation >200%); EC1.5 [2]: < 1000 nM
C (EC1.5 >25 uM) | B (Fold Activation <200%) | – | – | O=C(NC1CCOC1=O)c1cccc2[nH]c(-c3cc(F)ccc3C(F)(F)F)nc12 (stereo not shown) [Compound 378] | –
A (EC1.5<1.0 uM) | A (Fold activation >200%) | – | – | Cn1nc(C(F)(F)F)c(-c2nc3c(C(=O)Nc4ccccn4)cccc3[nH]2)c1Cl [Compound 327] | –
– | – | – | – | Cc1cc(NC(=O)c2cccc3[nH]c(-c4cccc(N5CCOCC5)c4)nc23)n(C)n1 [Compound 399] | Fold Act. (percent maximum fold activation) [1]: A (Fold activation >200%); EC1.5 [2]: < 1000 nM
– | – | B (EC1.5 1-25 uM) | B (Fold Activation <200%) | O=C(Nc1ccccn1)c1cccc2[nH]c(-c3cc(N4CC[C@H](F)C4)ccc3C(F)(F)F)nc12 [Compound 666] | –
B (EC1.5 1-25 uM) | A (Fold activation >200%) | – | – | O=C(Nc1cccc2[nH]c(-c3cc(F)ccc3C(F)(F)F)nc12)c1cscn1 [Compound 384] | –
– | – | A (EC1.5<1.0 uM) | A (Fold activation >200%) | Cc1cc(-c2nc3c(C(=O)Nc4nc(CN5CCOCC5)cs4)cccc3[nH]2)ccn1 [Compound 844] | –

EC1.5 | Fold Act. (percent maximum fold activation) | EC1.5 [3] | Fold Act. (percent maximum fold activation) [3] | SMILES | further results
– | – | A (EC1.5<1.0 uM) | A (Fold activation >200%) | O=C(Nc1cccc(OC2CCNC2)c1)c1cccc2[nH]c(-c3ccc(Cl)cc3C(F)(F)F)nc12 (stereo not shown) [Compound 599] | –
B (EC1.5 1-25 uM) | A (Fold activation >200%) | – | – | O=C(Nc1ccncn1)c1cccc2[nH]c(-c3cccc(C(F)(F)F)c3)nc12 [Compound 277] | –
– | – | – | – | O=C(Nc1ccccn1)c1cccc2[nH]c(-c3ccccc3OCCN3CC[C@@H](F)C3)nc12 [Compound 508] | Fold Act. (percent maximum fold activation) [1]: A (Fold activation >200%); EC1.5 [2]: 1000 to 25000 nM
B (EC1.5 1-25 uM) | A (Fold activation >200%) | – | – | O=C(Nc1nccs1)c1cccc2[nH]c(-c3ccccc3OCC(O)CO)nc12 (stereo not shown) [Compound 326] | –
B (EC1.5 1-25 uM) | B (Fold Activation <200%) | – | – | Cc1cc(NC(=O)c2cccc3[nH]c(-c4cccc(C(F)(F)F)c4)nc23)sn1 [Compound 306] | –
B (EC1.5 1-25 uM) | A (Fold activation >200%) | – | – | Cc1nc(-c2nc3c(C(=O)Nc4nccs4)cccc3[nH]2)c(C)o1 [Compound 244] | –
– | – | – | – | O=C(Nc1ccccn1)c1cccc2[nH]c(-c3ccccc3OCCN3CC[C@H](F)C3)nc12 [Compound 510] | Fold Act. (percent maximum fold activation) [1]: B (Fold Activation <200%); EC1.5 [2]: 1000 to 25000 nM
B (EC1.5 1-25 uM) | A (Fold activation >200%) | – | – | O=C(Nc1ccc(Cl)cn1)c1cccc2[nH]c(-c3cccc(C(F)(F)F)c3)nc12 [Compound 285] | –
– | – | A (EC1.5<1.0 uM) | A (Fold activation >200%) | O=C(Nc1nccs1)c1cncc2[nH]c(-c3ccc(N4CCOCC4)cc3C(F)F)nc12 [Compound 804] | –
– | – | A (EC1.5<1.0 uM) | A (Fold activation >200%) | O=C(Nc1cccnc1)c1cncc2nc(-c3ccc(N4CCCC4)cc3C(F)F)[nH]c12 [Compound 812] | –
A (EC1.5<1.0 uM) | A (Fold activation >200%) | – | – | Cc1cnc(NC(=O)c2cccc3[nH]c(-c4ccc(Cl)cc4C(F)(F)F)nc23)s1 [Compound 346] | –
C (EC1.5 >25 uM) | B (Fold Activation <200%) | – | – | O=C(Nc1nccs1)c1cccc2[nH]c(-c3ccc(F)c(C(F)(F)F)c3)nc12 [Compound 216] | –
A (EC1.5<1.0 uM) | A (Fold activation >200%) | – | – | Cc1nn(-c2ccccc2)c(C)c1-c1nc2c(C(=O)Nc3nccs3)cccc2[nH]1 [Compound 291] | –
– | – | A (EC1.5<1.0 uM) | A (Fold activation >200%) | O=C(Nc1cccnc1)c1cc(N2CCOCC2)cc2[nH]c(-c3ccc(F)cc3C(F)(F)F)nc12 [Compound 691] | –
B (EC1.5 1-25 uM) | A (Fold activation >200%) | – | – | N#Cc1cccc(-c2nc3c(C(=O)Nc4nccs4)cccc3[nH]2)c1 [Compound 211] | –
– | – | A (EC1.5<1.0 uM) | A (Fold activation >200%) | O=C(Nc1ccccn1)c1cccc2[nH]c(-c3cc(CN4CCCC4)ccc3C(F)(F)F)nc12 [Compound 872, N-(pyridin-2-yl)-2-(5-(pyrrolidin-1-ylmethyl)-2-(trifluoromethyl)phenyl)-1H-benzo[d]imidazole-4-carboxamide] | –
B (EC1.5 1-25 uM) | B (Fold Activation <200%) | – | – | O=C(Nc1nccs1)c1cccc2[nH]c(-c3cccc(N4CCCC4)c3)nc12 [Compound 236] | –
– | – | – | – | O=C(NCc1ccccn1)c1cccc2[nH]c(-c3ccc(F)cc3C(F)(F)F)nc12 [Compound 435] | Fold Act. (percent maximum fold activation) [1]: B (Fold Activation <200%); EC1.5 [2]: 1000 to 25000 nM
B (EC1.5 1-25 uM) | B (Fold Activation <200%) | – | – | O=C(Nc1nccs1)c1cccc2[nH]c(-c3ccc(Cl)nc3)nc12 [Compound 246] | –
A (EC1.5<1.0 uM) | A (Fold activation >200%) | – | – | Cn1nc(-c2ccccc2)cc1-c1nc2c(C(=O)Nc3nccs3)cccc2[nH]1 [Compound 253] | –
